Test results taken from US10955352B2, “Method for assessing a state of a living cell” (Agency for Science, Technology and Research, priority 2016, dated 2021).

System: HeLa cells
Assay: SERS detection and quantification of sialic acid on single living HeLa cells with DBA tag (HC-PCF)
Format: cell-based
Method: HeLa cells were cultured in Dulbecco's modified eagle medium (DMEM) with 1% penicillin streptomycin (Gibco) and 10% fetal bovine serum (Gibco) in the dark with 5% CO2 and 37° C. until they were confluent. The cells were then harvested by adding 1×EDTA trypsin of appropriate volume for 4 min, followed by addition of DMEM of double that volume to neutralize the trypsin. The harvested cells were centrifuged at 1,500 rpm for 3 mins. The supernatant was removed and the cells were suspended with DMEM to achieve a cell concentration of 5000 cells/ml. Two milliliter of cell suspension was seeded per well in a six-well plate and allowed to grow for 48 hours.
After incubation, DMEM was removed from each well and the adhered cells were rinsed lightly with 1×PBS which was subsequently removed. Four wells were used in our experiment. In order to reduce the probability of DBA binding onto sites of sialic acid on the surface of the cell membrane, thus mimicking a cell with lowered sialic acid level, 10 mM of phenyl-boronic acid (PBA) (Sigma Aldrich) dissolved in DMEM and 1% DMSO (Merck Millipore) were added to one well (Well A) and left to incubate for 24 hours. […]
Post-incubation washing was performed for all the wells and 10 mM of DBA (Sigma Aldrich) dissolved in DMEM and 1% DMSO was added into wells A, B and C, with incubation time of 4 hours. […] Supernatant were removed after centrifugation and the cells are ready for SERS sample preparation. […]
SERS spectra were recorded using a Raman microscope system (Renishaw InVia) with a 633 nm excitation laser and equipped with a grating (spectral resolution of about 1.8 cm^−1). […]
In order to calculate the amount of sialic acid on cell for Sialic acid and (+)Sialic acid samples, intensity of the 2,000 cm^−1 peak was obtained from the SERS measurement (FIG. 10A). […] The number of sialic acid molecules may be quantified by estimating the amount of DBA molecules from the trend line as the binding between DBA molecule to the sialic acid molecule is one by one. […]

Row | Structure (SMILES) | 2,000 cm^-1 peak in Raman spectrum (DBA binding to sialic acid) after pre-treatment (HeLa cells, 10 mM PBA 24 hours, then 10 mM DBA 4 hours) | calculated sialic acid amount on a single HeLa cell (5 μM prednisolone 72 hours, then 10 mM DBA 4 hours, estimated from DBA calibration curve of 2,000 cm^-1 peak) | intensity at 2,000 cm^-1 (DBA alkyne peak, sialic acid expression) versus positive control (HeLa cells, 5 μM prednisolone 72 hours, then DBA)
1 | OB(O)c1ccccc1 [PBA, phenyl-boronic acid] | negligible presence of that peak | – | –
2 | C[C@]12C=CC(=O)C=C1CC[C@@H]1[C@@H]2[C@@H](O)C[C@@]2(C)[C@H]1CC[C@]2(O)C(=O)CO [prednisolone] | – | 6.782 fmol | higher than that of the positive control
